Reference: US20100317647A1 (priority 2009, published 2010)

Biological target: human Cat S (Homo sapiens, UniProt P25774)
Experiment: Cathepsin enzyme inhibition assay (fluorogenic peptide substrate cleavage)
Type: biochemical
Conditions: human Cat S 1 nM; substrate Z-Val-Val-Arg-AMC 20 μM; pH 6.5; fluorescence over 20 minutes
Summary of the method: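 IC50 values derived from fluorescence increase (ex 360 nm, em 465 nm) monitored for 20 minutes after substrate addition. Enzyme held at 1 nM with 20 μM Z-Val-Val-Arg-AMC, in pH 6.5 potassium phosphate buffer containing DTT, EDTA and Triton X-100.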

Chain of human Cat S (P25774 115-331): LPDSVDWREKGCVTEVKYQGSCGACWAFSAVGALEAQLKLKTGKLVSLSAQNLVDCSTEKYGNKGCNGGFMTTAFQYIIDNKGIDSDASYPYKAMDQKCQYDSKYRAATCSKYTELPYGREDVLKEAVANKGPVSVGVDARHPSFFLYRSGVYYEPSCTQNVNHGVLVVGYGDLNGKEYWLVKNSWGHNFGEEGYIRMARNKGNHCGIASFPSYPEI

Point of comparison: `CN1CCC(C#N)(NC(=O)[C@@H]2C[C@@H](S(=O)(=O)c3ccccc3C(F)(F)F)C[C@H]2OCc2ccc(Cl)cc2)CC1` (racemic) [Example 235, (1R,2R,4R) and (1S,2S,4S)-2-(4-Chloro-benzyloxy)-4-(2-trifluoromethyl-benzenesulfonyl)-cyclopentanecarboxylic acid (4-cyano-1-methyl-piperidin-4-yl)-amide], IC50 7.3 nM. Against it:
- N#CC1(NC(=O)[C@@H]2C[C@@H](S(=O)(=O)c3cccc(-c4ccnc(Cl)c4)c3)C[C@H]2C(=O)N2CCC(F)(F)C2)CC1 [Example 204, (1R,2R,4R)-4-[3-(2-Chloro-pyridin-4-yl)-benzenesulfonyl]-2-(3,3-difluoro-pyrrolidine-1-carbonyl)-cyclopentanecarboxylic acid (1-cyano-cyclopropyl)-amide] — 54-fold lower, 0.135 nM
- CO[C@@H]1C[C@H](S(=O)(=O)c2ccc(-c3c(C)noc3C)cc2C(F)(F)F)C[C@H]1C(=O)NC1(C#N)CC1 (racemic) [Example 91, (1R,2R,4R) and (1S,2S,4S)-4-[4-(3,5-Dimethyl-isoxazol-4-yl)-2-trifluoromethyl-benzenesulfonyl]-2-methoxy-cyclopentanecarboxylic acid (1-cyano-cyclopropyl)-amide] — 15-fold lower, 0.5 nM
- CO[C@@H]1C[C@H](S(=O)(=O)c2ccc(-c3ccnc(C)c3)cc2C(F)(F)F)C[C@H]1C(=O)NC1(C#N)CC1 [Example 139, (1R,2R,4R)-2-Methoxy-4-[4-(2-methyl-pyridin-4-yl)-2-trifluoromethyl-benzenesulfonyl]-cyclopentanecarboxylic acid (1-cyano-cyclopropyl)-amide] — 24-fold lower, 0.3 nM
- Cc1cc(Cl)ccc1S(=O)(=O)[C@@H]1C[C@@H](C(=O)NCC#N)[C@H](C(=O)N2C[C@@H](C)O[C@@H](C)C2)C1 [Example 32, (1R,2R,4R)-4-(4-Chloro-2-methyl-benzenesulfonyl)-2-((2S,6R)-2,6-dimethyl-morpholine-4-carbonyl)-cyclopentanecarboxylic acid cyanomethyl-amide] — 18-fold lower, 0.4 nM
- CCOC(=O)N1CCC(C#N)(NC(=O)[C@@H]2C[C@@H](S(=O)(=O)c3ccccc3C(F)(F)F)C[C@H]2OCc2ccc(Cl)cc2)CC1 (racemic) [Example 241, 4-{[(1R,2R,4R) and (1S,2S,4S)-2-(4-Chloro-benzyloxy)-4-(2-trifluoromethyl-benzenesulfonyl)-cyclopentanecarbonyl]-amino}-4-cyano-piperidine-1-carboxylic acid ethyl ester] — 1.6-fold higher, 12 nM
- N#CC1(NC(=O)[C@@H]2C[C@@H](S(=O)(=O)c3ccccc3Cl)C[C@H]2COc2ccc(Cl)cc2)CC1 (single isomer, unassigned) [Example 70] — 2.1-fold lower, 3.4 nM
- N#CC1(NC(=O)[C@@H]2C[C@@H](S(=O)(=O)c3ccc(F)cc3Cl)C[C@H]2COc2ccc(Cl)nc2)CC1 [Example 162, (1R,2R,4S)-4-(2-Chloro-4-fluoro-benzenesulfonyl)-2-(6-chloro-pyridin-3-yloxymethyl)-cyclopentanecarboxylic acid (1-cyano-cyclopropyl)-amide] — 2-fold higher, 14.7 nM
- CO[C@@H]1C[C@H](S(=O)(=O)c2ccc(-c3cncc(C)c3)cc2C(F)(F)F)C[C@H]1C(=O)NC1(C#N)CC1 (racemic) [Example 85, (1R,2R,4R) and (1S,2S,4S)-2-Methoxy-4-[4-(5-methyl-pyridin-3-yl)-2-trifluoromethyl-benzenesulfonyl]-cyclopentanecarboxylic acid (1-cyano-cyclopropyl)-amide] — 15-fold lower, 0.5 nM
- CO[C@@H]1C[C@H](S(=O)(=O)c2ccc(Br)cc2C(F)(F)F)C[C@H]1C(=O)NC1(C#N)CC1 (racemic) [Example 58, (1R,2R,4R) and (1S,2S,4S)-4-(4-Bromo-2-trifluoromethyl-benzenesulfonyl)-2-methoxy-cyclopentanecarboxylic acid (1-cyano-cyclopropyl)-amide] — within 1.5-fold, 6.2 nM
- N#CC1(NC(=O)[C@@H]2C[C@@H](S(=O)(=O)c3ccc(Cl)cn3)C[C@H]2C(=O)N2CCC(F)(F)C2)CC1 [Example 225, (1R,2R,4R)-4-(5-Chloro-pyridine-2-sulfonyl)-2-(3,3-difluoro-pyrrolidine-1-carbonyl)-cyclopentanecarboxylic acid (1-cyano-cyclopropyl)-amide] — 19-fold lower, 0.38 nM
- COCCn1cc(-c2ccc(S(=O)(=O)[C@H]3C[C@@H](OC)[C@H](C(=O)NC4(C#N)CC4)C3)c(C(F)(F)F)c2)cn1 (racemic) [Example 172, (1R,2R,4R) and (1S,2S,4S)-2-Methoxy-4-{4-[1-(2-methoxy-ethyl)-1H-pyrazol-4-yl]-2-trifluoromethyl-benzenesulfonyl}-cyclopentanecarboxylic acid (1-cyano-cyclopropyl)-amide] — 17-fold lower, 0.435 nM
- CO[C@@H]1C[C@H](S(=O)(=O)c2ccc(-c3ccnnc3)cc2C(F)(F)F)C[C@H]1C(=O)NC1(C#N)CC1 (racemic) [Example 110, (1R,2R,4R) and (1S,2S,4S)-2-Methoxy-4-(4-pyridazin-4-yl-2-trifluoromethyl-benzenesulfonyl)-cyclopentanecarboxylic acid (1-cyano-cyclopropyl)-amide] — 12-fold lower, 0.6 nM
- CCOC(=O)N1CCC(C#N)(NC(=O)[C@@H]2C[C@@H](S(=O)(=O)c3ccc(Cl)cc3Cl)C[C@H]2OCc2ccc(Cl)cc2)CC1 (racemic) [Example 242, 4-{[(1R,2R,4R) and (1S,2S,4S)-2-(4-Chloro-benzyloxy)-4-(2,4-dichloro-benzenesulfonyl)-cyclopentanecarbonyl]-amino}-4-cyano-piperidine-1-carboxylic acid ethyl ester] — 13-fold higher, 92 nM
- CCOC1CN(C(=O)[C@@H]2C[C@H](S(=O)(=O)c3ccccc3)C[C@H]2C(=O)NC2(C#N)CC2)C1 [Example 21, (1R,2R,4R)-4-Benzenesulfonyl-2-(3-ethoxy-azetidine-1-carbonyl)-cyclopentanecarboxylic acid (1-cyano-cyclopropyl)-amide] — within 1.5-fold, 4.9 nM
- CO[C@@H]1C[C@H](S(=O)(=O)c2ccc(N3CCN(C)CC3)cc2C(F)(F)F)C[C@H]1C(=O)NC1(C#N)CC1 (racemic) [Example 161, (1R,2R,4R) and (1S,2S,4S)-2-Methoxy-4-[4-(4-methyl-piperazin-1-yl)-2-trifluoromethyl-benzenesulfonyl]-cyclopentanecarboxylic acid (1-cyano-cyclopropyl)-amide] — 4.9-fold lower, 1.5 nM
- CCN1CCC(C#N)(NC(=O)[C@@H]2C[C@@H](S(=O)(=O)c3ccc(Cl)cc3Cl)C[C@H]2OCc2ccc(Cl)cc2)CC1 (racemic) [Example 240, (1R,2R,4R) and (1S,2S,4S)-2-(4-Chloro-benzyloxy)-4-(2,4-dichloro-benzenesulfonyl)-cyclopentanecarboxylic acid (4-cyano-1-ethyl-piperidin-4-yl)-amide] — 3.5-fold higher, 25.5 nM
- CO[C@@H]1C[C@H](S(=O)(=O)c2ccc(-c3cnn(C)c3)cc2C(F)(F)F)C[C@H]1C(=O)NC1(C#N)CC1 [Example 138, (1R,2R,4R)-2-Methoxy-4-[4-(1-methyl-1H-pyrazol-4-yl)-2-trifluoromethyl-benzenesulfonyl]-cyclopentanecarboxylic acid (1-cyano-cyclopropyl)-amide] — 18-fold lower, 0.4 nM
- N#CC1(NC(=O)[C@@H]2C[C@@H](S(=O)(=O)c3ccccc3Cl)C[C@H]2OCc2ccc(Cl)cc2C(F)(F)F)CC1 (racemic) [Example 151, (1R,2R,4R) and (1S,2S,4S)-2-(4-Chloro-2-(trifluoromethyl)benzyloxy)-4-(2-chlorophenylsulfonyl)-N-(1-cyanocyclopropyl)cyclopentanecarboxamide] — 2.4-fold lower, 2.99 nM
- N#CC1(NC(=O)[C@@H]2C[C@@H](S(=O)(=O)c3ccccc3Cl)C[C@H]2OCc2cc(F)c(Cl)cc2Cl)CC1 (racemic) [Example 180, (1R,2R,4R) and (1S,2S,4S)-4-(2-Chlorophenylsulfonyl)-N-(1-cyanocyclopropyl)-2-(2,4-dichloro-5-fluorobenzyloxy)cyclopentanecarboxamide] — 22-fold higher, 157 nM
- CO[C@@H]1C[C@H](S(=O)(=O)c2ccc(-c3ccccc3)cc2C(F)(F)F)C[C@H]1C(=O)NC1(C#N)CC1 (racemic) [Example 171, (1R,2R,4R) and (1S,2S,4S)-2-Methoxy-4-(3-trifluoromethyl-biphenyl-4-sulfonyl)-cyclopentanecarboxylic acid (1-cyano-cyclopropyl)-amide] — 6.1-fold lower, 1.2 nM
- Cn1cc(-c2ccc(S(=O)(=O)[C@H]3C[C@@H](OC4CCS(=O)(=O)CC4)[C@H](C(=O)NC4(C#N)CC4)C3)c(C(F)(F)F)c2)cn1 (racemic) [Example 184, (1R,2R,4R) and (1S,2S,4S)-2-[(tetrahydro-1,1-dioxo-2H-thiopyran-4-yl)oxy]-4-[4-(1-methyl-1H-pyrazol-4-yl)-2-trifluoromethyl-benzenesulfonyl]-cyclopentanecarboxylic acid (1-cyano-cyclopropyl)-amide] — 46-fold lower, 0.16 nM
- CC(C)(C#N)NC(=O)[C@@H]1C[C@@H](S(=O)(=O)c2ccccc2)C[C@H]1C(=O)N1CCOCC1 [Example 34, (1R,2R,4R)-4-Benzenesulfonyl-2-(morpholine-4-carbonyl)-cyclopentanecarboxylic acid (cyano-dimethyl-methyl)-amide] — 2.9-fold lower, 2.5 nM
- Cc1cc(-c2cccc(S(=O)(=O)[C@@H]3C[C@@H](C(=O)NC4(C#N)CC4)[C@H](C(=O)N4CCC(F)(F)C4)C3)c2)ccn1 [Example 203, (1R,2R,4R)-2-(3,3-Difluoro-pyrrolidine-1-carbonyl)-4-[3-(2-methyl-pyridin-4-yl)-benzenesulfonyl]-cyclopentanecarboxylic acid (1-cyano-cyclopropyl)-amide] — 37-fold lower, 0.195 nM
- COC1CN(C(=O)[C@@H]2C[C@H](S(=O)(=O)c3ccccc3)C[C@H]2C(=O)NC2(C#N)CC2)C1 [Example 22, (1R,2R,4R)-4-Benzenesulfonyl-2-(3-methoxy-azetidine-1-carbonyl)-cyclopentanecarboxylic acid (1-cyano-cyclopropyl)-amide] — within 1.5-fold, 5.5 nM
